How the values were obtained:
[1] = target: FGFR1 (Homo sapiens (Human), UniProt P11362); assay: TR-FRET kinase inhibition assay, FGFR1; assay type: biochemical; conditions: ATP Km concentration (30 μM)
Description: (§1) To measure the IC50 values of the compounds against FGFR1, FGFR2, FGFR3, FGFR4, and FGFR2 V564F at ATP Km concentrations by TR-FRET method.
(§2) TR-FRET (time-resolved fluorescence resonance energy transfer) method was used to detect the inhibitory activity of the compounds on FGFR1, FGFR2, FGFR3, FGFR4, and FGFR2 V564F kinase region fragments. The highest detection concentration of the compounds in 5 kinase experiments was 1000 nM, which was diluted in 3 folds, with a total of 11 concentrations (1000 nM to 0.017 nM). A kinase buffer (50 mM HEPES pH 7.5, 1 mM EGTA, 10 mM MgCl2, 2 mM DTT, and 0.01% Tween-20) was used to prepare 4× enzyme solution, 4× compound solutions diluted in gradient, and a 2×ATP/Peptide substrate solution. To a 384-well plate, 2.5 μL of enzyme solution and 2.5 μL of diluted […] compound solution were added, and 5 μL of 2×ATP/Peptide substrate solution was then added. After reacting at room temperature for 60 minutes for FGFR1, FGFR2, FGFR3, and FGFR2 V564F kinases, and 120 minutes for FGFR4 kinase, 10 μL of a 2× termination and detection mixed liquid prepared with 1×LANCE detection buffer with an EDTA concentration of 20 mM and a Europium-anti-phosphotyrosine (PT66) concentration of 2 nM was added to each well of the plate. After reacting at room temperature for 60 minutes for FGFR1, FGFR2, FGFR3, and FGFR4, and 30 minutes for FGFR2 V564F, the fluorescence signal value in each well of the plate was measured by a microplate reader.
(§3) 1) Inhibition rate (%): Calculation was performed on the raw data (665 nm/620 nm reading ratio) according to the following formula to obtain the inhibition rate. Inhibition rate %=[(mean value in positive control well−value in sample well)/(mean value in positive control well−mean value in negative control well)]×100, wherein the positive control well was a reaction well without a compound […], and the negative control well was a reaction wells without an enzyme.
(§4) 2) Curve fitting: Log(inhibitor) vs. response—Variable slope (four parameters) in GraphPad Prism 6 was used for fitting equation analysis of the compound concentration and the corresponding inhibition rate, and the curve was fitted to obtain the IC50 values of the compounds.

[2] = target: FGFR2 (Homo sapiens (Human), UniProt P21802); assay: TR-FRET kinase inhibition assay, FGFR2; assay type: biochemical; conditions: ATP Km concentration (30 μM)
Chain of FGFR2 (P21802 481-770): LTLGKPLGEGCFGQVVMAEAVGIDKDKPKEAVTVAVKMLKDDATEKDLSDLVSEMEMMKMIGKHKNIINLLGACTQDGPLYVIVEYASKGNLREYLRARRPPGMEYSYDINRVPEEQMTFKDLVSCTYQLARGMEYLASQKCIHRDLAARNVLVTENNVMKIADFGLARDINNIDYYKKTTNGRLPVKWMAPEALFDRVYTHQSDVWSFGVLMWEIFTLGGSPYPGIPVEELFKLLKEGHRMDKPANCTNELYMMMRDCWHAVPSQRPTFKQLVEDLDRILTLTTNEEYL
Description: as §1, §2, §3, §4

[3] = target: FGFR2 V564F (Homo sapiens (Human), UniProt P21802, V564F); assay: TR-FRET kinase inhibition assay, FGFR2 V564F; assay type: biochemical; conditions: ATP Km concentration (20 μM)
Chain of FGFR2 V564F (P21802 481-770 V564F): as the sequence (P21802 481-770) above, with V84F counted along it
Description: as §1, §2, §3, §4

[4] = system: BaF3 FGFR2-BICC1 V564F cells; assay: CellTiter-Glo cell proliferation inhibition, BaF3 FGFR2-BICC1 V564F; assay type: cell-based; conditions: Mus musculus, 72 h, read-out: BaF3 FGFR2-BICC1 V564F inhibitory activity IC50
Description: (§5) To evaluate inhibitory effects of the compounds on the proliferation of NCI-H716, SNU-16 and BaF3-FGFR2-BICC1 V564F cells by cell proliferation inhibition experiments.
(§6) CellTiter-Glo method was used to detect inhibitory effects of the compounds on the proliferation of NCI-H716, SNU-16 and BaF3 FGFR2-BICC1 V564F cells. The highest detection concentration of the compounds was 1000 nM, which was diluted in 3 folds, with a total of 9 concentrations (1000 nM to 0.15 nM). After the cells were plated at an appropriate density, compounds were added the next day and incubated for 72 h before detection using the […] detection kit.
as §3, with “(%):” for “(%): Calculation was performed on the raw data (665 nm/620 nm reading ratio) according to the following formula to obtain the inhibition rate.”
as §4

[5] = Pharmacokinetic experiment in SD rats after oral administration; assay type: in vivo; conditions: 5 mg/kg, plasma
Description: To study the pharmacokinetic behavior of the compounds of the present invention in the rat body (plasma) after oral administration at a dose of 5 mg/kg using SD rats as test animals.
3 SD rats/group, male, from Shanghai Jiesijie Experimental Animal Co., Ltd., animal production license number (SCXK (Shanghai) 2013-0006 N0.311620400001794).
PO, 10% solutol HS15-0.5% CMC-Na was dissolved by ultrasound and prepared into a clear solution or homogeneous suspension.
3 SD rats/group, male; p.o. respectively at a dose of 5 mg/kg and an administration volume of 10 mL/kg after the […] were fasted overnight.
After oral administration to rats, at 0.25, 0.5, 1, 2, 4, 6, 8 and 24 hours, 0.2 mL of blood was collected from the jugular vein, placed in an EDTA-K2 test tube, centrifuged at 6000 rpm for 6 min at 4° C. to separate the plasma, which was stored at −80° C.
1) 100 μL of acetonitrile was added to 20 μL of plasma sample for pelleting, and it was mixed and centrifuged at 3500×g for 5-20 min.
2) The treated supernatant solution was taken and subjected to LC/MS/MS to analyze the concentrations of the test compounds. LC/MS/MS analysis instrument: AB Sciex API 4000 Qtrap.
• Liquid phase conditions: Shimadzu LC-20AD pump • Chromatographic column: Waters Xbridge C18 5 μm, 4.6×50 mm mobile phase: liquid A was 0.1% aqueous formic acid solution, and liquid B was methanol • Flow rate: 1.0 mL/min • Elution time: 0-4.0 min, the eluent was as follows: […]

[6] = system: NCI-H716 cells; assay: CellTiter-Glo cell proliferation inhibition, NCI-H716; assay type: cell-based; conditions: Homo sapiens, 72 h, read-out: NCI-H716 cell proliferation inhibition rate IC50
Description: as §5, §6
as §3, with “(%):” for “(%): Calculation was performed on the raw data (665 nm/620 nm reading ratio) according to the following formula to obtain the inhibition rate.”
as §4

Chain of FGFR1 (P11362 478-767): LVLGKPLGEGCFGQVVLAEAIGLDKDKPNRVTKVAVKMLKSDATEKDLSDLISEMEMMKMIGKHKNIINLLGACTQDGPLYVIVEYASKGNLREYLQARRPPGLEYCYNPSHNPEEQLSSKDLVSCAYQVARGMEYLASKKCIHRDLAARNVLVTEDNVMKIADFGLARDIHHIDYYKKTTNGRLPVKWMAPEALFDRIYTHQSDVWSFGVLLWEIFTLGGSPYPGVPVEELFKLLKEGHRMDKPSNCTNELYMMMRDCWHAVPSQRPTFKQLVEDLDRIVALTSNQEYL

## C=CC(=O)N1CC[C@H](n2nc(C#Cc3ccc4ccnn4c3)c3c(N)ncc(C(=O)C4CC4)c32)C1 [Example 73, (S)-1-(3-(4-amino-7-(cyclopropanecarbonyl)-3-(pyrazolo[1,5-a]pyridine-6-ethynylene)-1H-pyrazolo[4,3-c]pyridin-1-yl)pyrrolidine-1-methyl)prop-2-en-1-one]
[1]
  IC50: 2.3 nM
[2]
  IC50: 0.7 nM
[3]
  IC50: 0.9 nM

## C=CC(=O)N1CC[C@H](n2nc(C#Cc3ccc4c(c3)ncn4C)c3c(N)ncc(C(=O)C(C)C)c32)C1 [Example 66]
[1]
  IC50: 6.8 nM
[2]
  IC50: 2.9 nM
[3]
  IC50: 0.8 nM
[4]
  IC50: 2.8 nM

## C=CC(=O)N1CC[C@H](n2nc(C#Cc3c(F)cc4c(ncn4C)c3F)c3c(N)ncc(C(C)=O)c32)C1 [Example 31, (S)-1-(3-(7-acetyl-4-amino-3-((4,6-difluoro-1-methyl-1H-benzo[d]imidazol-5-yl)ethynyl)-1H-pyrazolo[4,3-c]pyridin-1-yl)pyrrolidin-1-yl)prop-2-en-1-one]
[1]
  IC50: 3.5 nM
[2]
  IC50: 1.2 nM
[3]
  IC50: 0.8 nM
[4]
  IC50: 1.4 nM

## C=CC(=O)N1CC[C@H](n2nc(C#Cc3ccc4c(c3)ncn4C3CC3)c3c(N)ncc(C(=O)CC)c32)C1 [Example 39, (S)-1-(3-(4-amino-3-((1-cyclopropyl-1H-benzo[d]imidazol-5-yl)ethynyl)-7-propionyl-1H-pyrazolo[4,3-c]pyridin-1-yl)pyrrolidin-1-yl)prop-2-en-1-one]
[1]
  IC50: 6.1 nM
[2]
  IC50: 1.7 nM
[3]
  IC50: 0.6 nM
[4]
  IC50: 2.2 nM
[5]; male, Sprague-Dawley (SD), rat, po, read-out: Area under the curve AUC0-t
  AUC(0-t): 4190 ng·h/mL
[5]; male, Sprague-Dawley (SD), rat, po, read-out: Area under the curve AUC0-∞
  AUC(0-inf): 4240 ng·h/mL
[5]; male, Sprague-Dawley (SD), rat, po, read-out: Half-life t1/2 (converted)
  half-life: 1 h
[5]; male, Sprague-Dawley (SD), rat, po, read-out: Mean residence time MRT
  MRT: 2.63 h
[5]; male, Sprague-Dawley (SD), rat, po, read-out: Plasma concentration Cmax
  Cmax: 1250 ng/mL
[5]; p.o.
  Time to peak tmax: 2 h

## C=CC(=O)N1CC[C@H](n2nc(C#Cc3cc4nc(C)n(C5CC5)c4cc3F)c3c(N)ncc(C(C)=O)c32)C1 [Example 55, (S)-1-(3-(7-acetyl-4-amino-3-((1-cyclopropyl-6-fluoro-2-methyl-1H-benzo[d]imidazol-5-yl)ethynyl)-1H-pyrazolo[4,3-c]pyridin-1-yl)pyrrolidin-1-yl)prop-2-en-1-one]
[1]
  IC50: 4.4 nM
[2]
  IC50: 2.8 nM
[3]
  IC50: 1 nM
[4]
  IC50: 2.2 nM

## [2H]C([2H])([2H])n1cnc2cc(C#Cc3nn([C@H]4CCN(C(=O)C=C)C4)c4c(-c5nccs5)cnc(N)c34)c(F)cc21 [Example 25, (S)-1-(3-(4-amino-3-((6-fluoro-1-(methyl-d3)-1Hbenzo[d]imidazol-5-yl)ethynyl)-7-(thiazol-2-yl)-1Hpyrazolo[4,3-c]pyridin-1-yl)pyrrolidin-1-yl)prop-2-en-1-one]
[1]
  IC50: 5.7 nM
[2]
  IC50: 1.5 nM
[3]
  IC50: 0.6 nM

## C=CC(=O)N1CC[C@H](n2nc(C#Cc3ccc4c(c3)ncn4CC)c3c(N)ncc(C(=O)CC)c32)C1 [Example 57, (S)-1-(3-(4-amino-3-((1-ethyl-1H-benzo[d]imidazol-5-yl)ethynyl)-7-propionyl-1H-pyrazolo[4,3-c]pyridin-1-yl)pyrrolidin-1-yl)prop-2-en-1-one]
[1]
  IC50: 5.6 nM
[2]
  IC50: 1.3 nM
[3]
  IC50: 0.5 nM
[4]
  IC50: 2.5 nM

## C=CC(=O)N1CC[C@H](n2nc(C#Cc3cc4ncn(C)c4cc3F)c3c(N)ncc(C)c32)C1 [Example 18, (S)-1-(3-(4-amino-3-((6-fluoro-1-methyl-1H-benzo[d]imidazol-5-yl)ethynyl)-7-methyl-1H-pyrazolo[4,3-c]pyridin-1-yl)pyrrolidin-1-yl)prop-2-en-1-one]
[6]
  IC50: 1.82 nM

## C=CC(=O)N1CC[C@H](n2nc(C#Cc3cc4nc(C)n(C5CC5)c4cc3Cl)c3c(N)ncc(C(C)=O)c32)C1 [Example 54, (S)-1-(3-(7-acetyl-4-amino-3-((6-chloro-1-cyclopropyl-2-methyl-1H-benzo[d]imidazol-5-yl)ethynyl)-1H-pyrazolo[4,3-c]pyridin-1-yl)pyrrolidin-1-yl)prop-2-en-1-one]
[1]
  IC50: 5.5 nM
[2]
  IC50: 3.4 nM
[3]
  IC50: 0.9 nM
[4]
  IC50: 2.2 nM

## C=CC(=O)N1CC[C@H](n2nc(C#Cc3cc4ncn(C5CC5)c4cc3Cl)c3c(N)ncc(C(C)=O)c32)C1 [Example 44, (S)-1-(3-(7-acetyl-4-amino-3-((6-chloro-1-cyclopropyl-1H-benzo[d]imidazol-5-yl)ethynyl)-1H-pyrazolo[4,3-c]pyridin-1-yl)pyrrolidin-1-yl)prop-2-en-1-one]
[1]
  IC50: 4.4 nM
[2]
  IC50: 2.2 nM
[3]
  IC50: 0.4 nM
[4]
  IC50: 0.8 nM

## C=CC(=O)N1CC[C@H](n2nc(C#Cc3cc4ncn(CC)c4cc3F)c3c(N)ncc(-c4nccs4)c32)C1 [Example 22, (S)-1-(3-(4-amino-3-((1-ethyl-6-fluoro-1H-benzo[d]imidazol-5-yl)ethynyl)-7-(thiazol-2-yl)-1H-pyrazolo[4,3-c]pyridin-1-yl)pyrrolidin-1-yl)prop-2-en-1-one]
[1]
  IC50: 6.5 nM
[2]
  IC50: 1.6 nM
[3]
  IC50: 0.8 nM

## C=CC(=O)N1CC[C@H](n2nc(C#Cc3cc4ncn(C5CC5)c4cc3Cl)c3c(N)ncc(C(=O)C4CC4)c32)C1 [Example 46, (S)-1-(3-(4-amino-3-((6-chloro-1-cyclopropyl-1H-benzo[d]imidazol-5-yl)ethynyl)-7-(cyclopropanecarbonyl)-1H-pyrazolo[4,3-c]pyridin-1-yl)pyrrolidin-1-yl)prop-2-en-1-one]
[1]
  IC50: 5.2 nM
[2]
  IC50: 3.5 nM
[3]
  IC50: 1.1 nM
[4]
  IC50: 0.2 nM

## C=CC(=O)N1CC[C@H](n2nc(C#Cc3cc4ncn(C5CC5)c4cc3F)c3c(N)ncc(-c4nccs4)c32)C1 [Example 34, (S)-1-(3-(4-amino-3-((1-cyclopropyl-6-fluoro-1H-benzo[d]imidazol-5-yl)ethynyl)-7-(thiazol-2-yl)-1H-pyrazolo[4,3-c]pyridin-1-yl)pyrrolidin-1-yl)prop-2-en-1-one]
[1]
  IC50: 6.6 nM
[2]
  IC50: 3.2 nM
[3]
  IC50: 2.2 nM
[4]
  IC50: 2.9 nM

Source: patent publication US20250152564A1, “PROPYLENE KETONE-CONTAINING BIOINHIBITOR, PREPARATION METHOD THEREFOR, AND USE THEREOF” (SHANGHAI HANSOH BIOMEDICAL CO., LTD., priority 2022, published 2025)
